{"source": "patent US12589087B2", "about": "“Enantiomer selective action on neurotransmission” (The Board of Trustees of the Leland Stanford Junior …, priority 2021, dated 2026)", "key": {"[1]": {"test_system": "mouse cerebral synaptosomes", "assay": "Synaptosomal neurotransmitter uptake assay", "format": "cell-based", "conditions": "10 μM substrate; for transport into synaptosomes: 37° C.", "description": "To each tube, 5 μL of a test compound solution (final concentration 10 μM) in Buffer KRP or Buffer KRP alone were added. Samples were incubated at 4° C. or 37° C. for 1, 10, or 30 min and then immediately centrifuged and washed twice by resuspension-centrifugation with Buffer S (0.5 mL). Resulting pellets were resuspended in 170 μL of 0.1% aqueous formic acid and mixed with 330 μL of ACN.\n96-well plate experiments: 250 μL aliquots of the synaptosome suspension were transferred to two 0.8-mL 96 well plates, one on ice (0° C. samples only) and one in a thermoblock (37° C. samples only), and equilibrated for 10 min. 5 μL of a test compound (0.5 mM; final concentration: 10 μM) in Buffer KRP or Buffer KRP blank were added 10, 20 or 30 min before the incubation termination. “0 min” samples were prepared by placing the test compound solution in a separate pre-chilled V-shape bottom 2-mL 96 well plate; at the end of incubation 200 μL aliquots of all samples were transferred to the 2-mL 96 well plate and centrifuged (2,500 g for 15 min at 4° C.) immediately. The resulting pellets were rinsed with Buffer KRP, followed by centrifugation, twice, then resuspended in 200 μL of 60% ACN containing 2.5 μM Glu-d5 as internal standard and stored at −80° C. until analysis.\nSynaptosome uptake and high potassium-induced release assays were performed as described in Example 1. Uptake assays used 250 μL aliquots of the synaptosome suspension transferred to a pre-chilled 0.8 mL 96 well plate. 5 μL of a test compound solution (0.5 mM; final concentration: 10 μM to compare directly to our previous work was added to each well and incubated at 0° C. or 37° C. After 10, 20 or 30 min, samples were chilled on ice and immediately sedimented (2,500 g for 15 min at 4° C.) and washed with Buffer S (0.5 mL, ×2). Resulting pellets were resuspended in 200 μL of 60% ACN containing 5 μM GABA-d6 and stored at −80° C. until analysis. Potassium-induced release assay used 500 μL aliquots of the synaptosome suspension transferred to pre-chilled microcentrifuge tubes. 2.5 μL of a test compound solution (20 mM; final concentration: 100 μM) in Buffer KRP was added to each tube and incubated for 15 min at 37° C., briefly chilled on ice, and then immediately sedimented (8,000 g for 4 min at 4° C.) and washed with Buffer KRP, followed by centrifugation, twice. The resulting pellets were resuspended in 500 μL of Buffer KRP or Buffer K-KRP and incubated for 5, 10 or 15 min at 37° C., sedimented (8,000 g for 4 min at 4° C.), and washed with Buffer KRP. Resulting pellets were resuspended in 400 μL of 60% ACN containing 2.5 μM GABA-d6 as internal standard and stored at −80° C. until analysis."}, "mGluR5": {"molecular_target": "T1, mGluR5 (Homo sapiens, UniProt P41594)", "T1 construct": "host or cells: CHO-K1 cells", "T1 sequence (P41594 21-1212)": "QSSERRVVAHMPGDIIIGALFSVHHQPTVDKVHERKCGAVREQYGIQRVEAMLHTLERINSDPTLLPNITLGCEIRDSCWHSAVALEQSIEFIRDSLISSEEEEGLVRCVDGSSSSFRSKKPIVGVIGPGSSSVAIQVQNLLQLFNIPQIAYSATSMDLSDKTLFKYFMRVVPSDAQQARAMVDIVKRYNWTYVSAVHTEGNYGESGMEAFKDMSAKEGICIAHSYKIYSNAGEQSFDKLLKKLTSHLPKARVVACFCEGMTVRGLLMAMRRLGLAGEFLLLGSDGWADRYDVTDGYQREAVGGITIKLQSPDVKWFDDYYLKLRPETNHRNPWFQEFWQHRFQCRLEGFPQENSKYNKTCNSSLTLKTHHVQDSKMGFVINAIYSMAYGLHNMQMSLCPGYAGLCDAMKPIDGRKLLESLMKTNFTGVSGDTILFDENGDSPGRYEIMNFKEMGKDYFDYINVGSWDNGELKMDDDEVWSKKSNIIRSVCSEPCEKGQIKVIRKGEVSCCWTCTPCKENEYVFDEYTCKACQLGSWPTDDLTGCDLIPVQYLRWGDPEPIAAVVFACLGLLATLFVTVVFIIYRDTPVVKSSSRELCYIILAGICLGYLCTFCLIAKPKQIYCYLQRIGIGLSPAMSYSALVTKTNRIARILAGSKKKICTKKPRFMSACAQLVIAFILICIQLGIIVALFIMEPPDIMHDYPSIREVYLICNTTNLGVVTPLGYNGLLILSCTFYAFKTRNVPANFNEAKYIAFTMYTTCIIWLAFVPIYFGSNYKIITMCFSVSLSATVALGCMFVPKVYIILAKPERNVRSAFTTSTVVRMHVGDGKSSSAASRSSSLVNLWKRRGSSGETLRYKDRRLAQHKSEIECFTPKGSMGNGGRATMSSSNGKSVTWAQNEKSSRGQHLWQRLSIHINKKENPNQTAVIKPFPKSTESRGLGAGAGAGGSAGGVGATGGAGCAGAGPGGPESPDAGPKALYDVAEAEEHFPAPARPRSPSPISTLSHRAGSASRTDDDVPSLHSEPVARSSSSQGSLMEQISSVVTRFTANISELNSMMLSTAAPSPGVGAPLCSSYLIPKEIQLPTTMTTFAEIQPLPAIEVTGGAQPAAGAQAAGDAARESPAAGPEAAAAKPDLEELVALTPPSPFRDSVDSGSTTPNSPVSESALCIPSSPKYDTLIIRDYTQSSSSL", "assay": "radioligand binding assay, recombinant CHO-K1 cells", "description": "(§1) Nonspecific AMPA, kainate and NMDA binding assays were performed by Eurofins Discovery (Cerep) using rat cerebral cortex membranes and radiolabeled [^3H]AMPA, [^3H]kainic acid and [^3H]CGP 39653, respectively. All compounds were tested at a single concentration of 100 uM in triplicate. mGluR1, mGluR2, mGluR5 and GABAB binding assays were performed by Eurofins Discovery. mGluR1 assay was performed using rat cerebellum membranes and radiolabeled [^3H]quisqalic acid. mGluR2 assay was performed using recombinant Chem-1 cells and [^3H]LY341495. mGluR5 and GABAB binding assays were performed using recombinant CHO-K1 cells and […], respectively. All compounds were tested at a single concentration of 100 uM in triplicate.\n(§2) All receptor assays were performed exactly as described in Example 1. Functional assays of all GABAA, NMDA (GluN2A-GluN2D) and AMPA (GluA2) receptor subunits were performed by SB Drug Discovery as a part of their CNS discovery panel using FLIPR technology. All compounds were tested at 7 concentrations in triplicate and EC50/IC50 was determined where applicable. Functional GABAB assay was performed by Eurofins Discovery (Cerep) using Ca^2+-dependent fluorimetry in RBL cells expressing human GABAB (B1/B2) receptor. All compounds were tested at a single concentration of 100 uM in triplicate. Nonspecific AMPA, kainate and NMDA binding assays were performed by Eurofins Discovery (Cerep) using rat cerebral cortex membranes and radiolabeled [^3H]AMPA, [^3H]kainic acid and [^3H]CGP 39653, respectively. All compounds were tested at a single concentration of 100 uM in triplicate. mGluR1, mGluR2, mGluR5 and GABAB binding assays were performed by Eurofins Discovery. All compounds were tested at a single concentration of 100 uM in triplicate."}, "GABAA α4β1γ2": {"molecular_target": "T2, GABAA α4β1γ2 (Homo sapiens, UniProt P18505+P18507+P48169)", "T2 construct": "host or cells: HEK 293 (stably expressing)", "T2 sequence (P48169 36-554)": "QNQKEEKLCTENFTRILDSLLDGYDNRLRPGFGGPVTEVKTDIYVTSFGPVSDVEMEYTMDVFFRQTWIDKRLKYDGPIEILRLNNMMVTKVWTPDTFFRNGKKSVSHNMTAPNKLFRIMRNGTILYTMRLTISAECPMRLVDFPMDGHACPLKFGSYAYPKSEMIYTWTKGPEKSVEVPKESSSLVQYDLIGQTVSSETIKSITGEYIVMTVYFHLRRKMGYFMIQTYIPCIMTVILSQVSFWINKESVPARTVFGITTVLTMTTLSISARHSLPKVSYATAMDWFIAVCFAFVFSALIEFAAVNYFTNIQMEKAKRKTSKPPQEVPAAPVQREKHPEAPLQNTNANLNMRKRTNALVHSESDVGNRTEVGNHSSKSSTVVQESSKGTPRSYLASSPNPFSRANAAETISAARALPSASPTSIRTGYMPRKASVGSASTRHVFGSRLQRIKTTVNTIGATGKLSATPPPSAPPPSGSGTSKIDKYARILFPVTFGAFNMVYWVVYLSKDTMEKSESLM", "T2 sequence (P18505 26-474)": "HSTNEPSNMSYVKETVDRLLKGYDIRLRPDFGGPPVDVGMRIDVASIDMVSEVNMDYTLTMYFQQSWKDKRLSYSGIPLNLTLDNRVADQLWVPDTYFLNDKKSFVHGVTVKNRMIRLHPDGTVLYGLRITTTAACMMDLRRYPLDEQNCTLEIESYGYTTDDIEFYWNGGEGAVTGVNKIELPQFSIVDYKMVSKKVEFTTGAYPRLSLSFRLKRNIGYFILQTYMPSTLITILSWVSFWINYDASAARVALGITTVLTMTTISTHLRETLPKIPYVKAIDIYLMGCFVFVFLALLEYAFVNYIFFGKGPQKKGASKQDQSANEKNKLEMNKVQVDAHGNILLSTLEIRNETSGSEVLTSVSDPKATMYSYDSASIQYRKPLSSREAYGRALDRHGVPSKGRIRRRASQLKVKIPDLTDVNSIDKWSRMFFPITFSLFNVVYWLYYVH", "T2 sequence (P18507 40-475)": "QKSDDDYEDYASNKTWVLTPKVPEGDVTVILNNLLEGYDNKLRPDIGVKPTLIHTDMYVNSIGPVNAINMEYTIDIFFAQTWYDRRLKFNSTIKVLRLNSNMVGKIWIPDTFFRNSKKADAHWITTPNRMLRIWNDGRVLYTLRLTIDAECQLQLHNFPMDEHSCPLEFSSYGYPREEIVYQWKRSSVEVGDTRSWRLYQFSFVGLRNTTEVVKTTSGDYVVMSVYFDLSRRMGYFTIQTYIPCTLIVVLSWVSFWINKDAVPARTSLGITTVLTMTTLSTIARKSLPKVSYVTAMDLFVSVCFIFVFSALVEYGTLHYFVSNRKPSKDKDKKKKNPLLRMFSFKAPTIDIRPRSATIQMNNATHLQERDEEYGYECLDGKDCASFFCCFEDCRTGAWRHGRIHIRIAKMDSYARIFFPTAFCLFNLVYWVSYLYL", "assay": "FLIPR functional assay, HEK 293 cells (agonist/PAM/antagonist)", "format": "cell-based", "conditions": "top concentration 1 mM, read-out: EC50, functional agonist receptor assay", "description": "(§3) Functional assays of all GABAA, NMDA (GluN2A-GluN2D) and AMPA (GluA2) receptor subunits were performed by SB Drug Discovery as a part of their CNS discovery panel using FLIPR technology. Briefly, receptor-expressing HEK 293 cell lines were incubated in a red membrane potential dye in HEPES:HBSS pH 7.4 buffer and the fluorescence (λex: 488, λex: 510-570) was monitored over time as the test compounds and/or reference compounds were added to the solution. In agonist assay, only test compounds were added. In positive allosteric modulator assay, cells were preincubated with test compounds and then low concentration (approximately EC20) of an appropriate agonist was added. In antagonist assay, cells were preincubated with test compounds and then high concentration (approximately EC80) of an appropriate agonist was added. For GABAA assays, GABA was used as the agonist, picrotoxin was used as the reference antagonist and allopregnanolone was used as the reference positive allosteric modulator (PAM). For NMDA assays, a mixture of glutamate, glycine and CaCl2 was used as the agonist, MK801 was the reference antagonist and pregnenolone sulfate or GNE 9278 were used as reference PAMs. For AMPA assays, glutamate was used as the agonist, CNQX was the reference antagonist and cyclothiazide was used as the reference PAM. All compounds were tested at 7 concentration points in triplicate and EC50/IC50 was determined where applicable. Functional GABAB assay was performed by Eurofins Discovery (Cerep) using Ca^2+-dependent fluorimetry in RBL cells expressing human GABAB (B1/B2) receptor. All compounds were tested at a single concentration of 100 uM in triplicate.\nas §2"}, "GABAA α3β2γ2": {"molecular_target": "T3, GABAA α3β2γ2 (Homo sapiens, UniProt P18507+P34903+P47870)", "T3 construct": "host or cells: HEK 293 (stably expressing)", "T3 sequence (P34903 29-492)": "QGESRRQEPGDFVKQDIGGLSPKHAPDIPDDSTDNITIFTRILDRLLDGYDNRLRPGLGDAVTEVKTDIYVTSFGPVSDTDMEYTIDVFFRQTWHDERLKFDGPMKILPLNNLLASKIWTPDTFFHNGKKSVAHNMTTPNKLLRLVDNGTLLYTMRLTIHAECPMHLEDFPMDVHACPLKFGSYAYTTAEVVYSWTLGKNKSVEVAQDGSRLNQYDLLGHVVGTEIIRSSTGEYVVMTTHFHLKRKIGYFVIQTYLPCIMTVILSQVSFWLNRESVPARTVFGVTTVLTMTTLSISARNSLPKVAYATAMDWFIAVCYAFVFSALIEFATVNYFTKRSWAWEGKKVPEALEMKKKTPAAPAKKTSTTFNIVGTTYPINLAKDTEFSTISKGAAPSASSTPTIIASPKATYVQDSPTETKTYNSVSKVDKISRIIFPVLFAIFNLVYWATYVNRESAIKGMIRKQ", "T3 sequence (P47870 25-512 limits assumed)": "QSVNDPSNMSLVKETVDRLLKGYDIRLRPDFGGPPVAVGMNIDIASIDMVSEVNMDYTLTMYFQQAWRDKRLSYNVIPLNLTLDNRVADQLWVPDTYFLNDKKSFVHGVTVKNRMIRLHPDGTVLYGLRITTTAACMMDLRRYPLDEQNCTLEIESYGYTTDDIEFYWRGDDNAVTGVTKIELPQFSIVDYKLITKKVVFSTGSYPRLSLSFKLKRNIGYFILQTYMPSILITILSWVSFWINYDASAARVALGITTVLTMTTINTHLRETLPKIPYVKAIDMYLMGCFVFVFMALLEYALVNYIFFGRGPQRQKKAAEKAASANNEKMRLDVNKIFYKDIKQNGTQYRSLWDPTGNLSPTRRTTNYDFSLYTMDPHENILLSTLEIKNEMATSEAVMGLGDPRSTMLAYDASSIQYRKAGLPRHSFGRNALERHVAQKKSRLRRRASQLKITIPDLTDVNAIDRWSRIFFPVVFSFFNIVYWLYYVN", "T3 sequence (P18507 40-475)": "as the sequence (P18507 40-475) above", "assay": "FLIPR functional assay, HEK 293 cells (agonist/PAM/antagonist)", "format": "cell-based", "conditions": "top concentration 1 mM, read-out: EC50, functional agonist receptor assay", "description": "as §3, §2"}, "GABAB nonsel": {"test_system": "GABAB nonsel", "assay": "radioligand binding inhibition assay", "conditions": "rat, 100 μM", "description": "as §1"}}, "note": "pEC50: −log10 of the molar value."}
{"smiles": "C[C@@](N)(CCC(=O)O)C(=O)O", "note": "[(R)-2MeGlu, (R)-2-methylglutamic acid]", "values": [{"measurement": "transport into synaptosomes", "setting": "[1]", "value": "transported into synaptosomes"}, {"measurement": "inhibition at 100 µM", "setting": "mGluR5; first mGluR5 row of Table 5", "value": -20, "unit": "%"}, {"measurement": "inhibition at 100 µM", "setting": "mGluR5; second mGluR5 row of Table 5", "value": -2, "unit": "%"}, {"measurement": "pEC50", "setting": "GABAA α4β1γ2", "value": 3.06}, {"measurement": "pEC50", "setting": "GABAA α3β2γ2", "value": 2.98}, {"measurement": "% of radioligand binding inhibition", "setting": "GABAB nonsel", "value": 5, "unit": "%"}]}
{"smiles": "C[C@](N)(CCC(=O)O)C(=O)O", "note": "[(S)-2MeGlu, (S)-2-methylglutamic acid]", "values": [{"measurement": "transport into synaptosomes", "setting": "[1]", "value": "transported into synaptosomes"}, {"measurement": "synaptosomal uptake, faster than the R enantiomer", "setting": "[1]; temperature-dependent uptake", "value": "approximately 3 fold"}, {"measurement": "inhibition at 100 µM", "setting": "mGluR5; first mGluR5 row of Table 5", "value": 11, "unit": "%"}, {"measurement": "inhibition at 100 µM", "setting": "mGluR5; second mGluR5 row of Table 5", "value": -4, "unit": "%"}, {"measurement": "pEC50", "setting": "GABAA α4β1γ2", "value": 3.15}, {"measurement": "pEC50", "setting": "GABAA α3β2γ2", "value": 3.02}, {"measurement": "% of radioligand binding inhibition", "setting": "GABAB nonsel", "value": 5, "unit": "%"}]}
